Experimental findings from US20120004282A1, “RNA Interference Mediated Inhibition of the Intercellular Adhesion Molecule 1 (ICAM-1) Gene Expression Using Short Interfering Nucleic Acid (siNA)” (Merck Sharp & Dohme Corp,, priority 2009, published 2012) are described below.

[invAb] = inverted abasic unit; m = 2'-O-methyl; r = 2'-OH (RNA); f = 2'-fluoro

For data set [1], the system named is human ICAM-2 mRNA transcript. Briefly: ICAM-2 mRNA specificity screen in human cells (Taqman RT-PCR). It is filed as cell-based. The conditions noted are these: mean ± S.D., three independent experiments. The method, then:
Calu-1 (human; ATCC cat# HTB-54): Cells were cultured at 37° C. in the presence of 5% CO2 and grown in McCoy's 5a medium supplemented with fetal bovine serum at a final concentration of 10% and 100 μg/mL of streptomycin and 100 U/mL penicillin.
Calu-1 cells were plated in all wells of a tissue-culture treated, 96-well plate at final counts of 5,000 cells/well in 100 μL of appropriate culture media. Cells were cultured for 24 hours after plating at 37° C. in the presence of 5% CO2.
After 24 hours, complexes containing siNA and RNAiMax were created as follows. A solution of RNAiMax diluted 33-fold in OPTI-MEM was prepared. In parallel, solutions of the siNAs for testing were prepared to a final concentration of 120 nM in OPTI-MEM. After incubation of RNAiMax/OPTI-MEM solution at room temperature for 5 min, an equal volume of the siNA solution and the RNAiMax solution were added together for each of the siNAs. […] This solution was incubated at room temperature for 20 minutes. After incubation, 20 uL of the solution was added to each of the relevant wells. The final concentration of siNA in each well was 10 nM and the final volume of RNAiMax in each well was 0.3 uL.
A series of probes and primers were used to detect the various mRNA transcripts of the genes of ICAM-1 and ICAM-2 in human cell lines (see Table 2). All the Taqman probes and primers for the experiments here-in described were supplied as pre-validated sets by Applied Biosystems, Inc., (see Table 2). The assays were performed on an ABI 7900 instrument, according to the manufacturer's instructions.
A TaqMan Gene Expression Master Mix (provided in the Cells-to-CT™, Applied Biosystems, Cat # 4399002) was used. The PCR reactions were carried out at 50° C. for 2 min, 95° C. for 20 min followed by 40 cycles at 95° C. for 15 secs and 60° C. for 1 min.
The expression level of the gene of interest and % knock-down was calculated using Comparative Ct method: […]
The non-targeting control siNA was, unless otherwise indicated, chosen as the value against which to calculate the % knock-down, because it is the most relevant control.
The specificity the six siNAs in Table 4 was also assessed. The siNAs were tested at 1 nM concentration to determine the effect of the ICAM-1 siNAs on the mRNA transcript of human ICAM-2.
For orientation: Real-time PCR tracks product formation cycle by cycle.

The test system of data set [2] is OAS1 mRNA. Briefly: Membrane and endosomal TLR3 mediated immunostimulation, OAS1 mRNA increase in Calu 1 cells. It is filed as cell-based, human. The conditions noted are these: Up to 100 nM. The method, then:
Human lung epithelial carcinoma (Calu-1) cells were grown at 37 degrees in the presence of 5% CO2 and cultured in […] supplemented with 10% fetal bovine serum, glutamine and antibiotics.
(§1) A series of probes and primers were used for the detection of mRNA transcripts of ICAM-1, OAS1, and GAPDH (as control/normalisation) in the human cell lines. The assays were performed on an ABI 7900HT instrument according to the manufacturer's instructions.
(§2) With TaqMan data, critical threshold values (Ct) were converted to copy numbers corresponding to the particular gene analysed in each well of the 384 well plate. Six identical wells were prepared in each plate for a given treatment. […] Determination of the percentage coefficient of variation (CV) (% C.V.=[standard deviation/average]*100) allowed the omitting of wells whose value was an outlier (so that % C.V.<25). Relative abundance (aka relative expression) of a gene was determined by dividing the mean copy number of that gene with its GAPDH counterpart in that particular sample.
(§3) Calu-1 or NHBE cell were treated as above in Example 2 and used for the measurement of endosomal TLR3 mediated immunostimulation, with the inclusion of polyI:C as a positive control for OAS1 mRNA upregulation. For the measurement of membrane bound TLR3 mediated immunostimulation the Calu 1 cells were cultured at 12000 cells/per 96 well and siNAs administered in PBS in the absence of a delivery vehicle at a concentration of 100 nM, 30 nM, 10 nM, 3 nM, 1 nM, and 0.3 nM.

Data set [3] deals with OAS1 mRNA. Briefly: Endosomal TLR3 mediated immunostimulation, OAS1 mRNA increase in NHBE cells. It is filed as cell-based, human. Conditions: Up to 100 nM, siNA formulated with delivery vehicle. The method, then:
as §1, §2, §3
The endosomal TLR3 mediated immunostimulation was also measured by recording the percent increase in OAS1 mRNA levels when the NHBE cells were transfected with the siNAs that had been formulated with the delivery vehicle (the Gemini surfactant GSC170 Dab—example 37 in WO03/82809) (percent increase in OAS1 mRNA levels relative to the Gemini delivery vehicle control). The TLR3 agonist Poly I: C is used as a positive control for OAS1 mRNA induction.

For the substance “29282-DC: siNA duplex, ICAM-1 target site 2113 (h); sense B cGcAucuGAucuGuAGucA TTB; antisense UGAcuAcAGAucAGAuGcGUU (sense CGCAUCUGAUCUGUAGUCATT; antisense UGACUACAGAUCAGAUGCGUU; sense: DNA at AGT, 2'-fluoro at CU, [invAb] at 5' end, 3' end, backbone not given here; antisense: sugars from the 5' end rrrffmfmmmffmmmfmfmmm, backbone not given here)”, the “% KD ICAM-2 1 nM” value in data set [1] is 3 ± 6%. Moreover, in the data set with OAS1 mRNA [2], the “Membrane & Endosomal TLR3 mediated Immunostimulation OAS1 mRNA increase Calu 1 Cells” value is given as “No significant effect”. In addition, the “Endosomal TLR3 mediated Immunostimulation OAS1 mRNA increase NHBE cells n = 3donors” value with OAS1 mRNA [3] is “No significant effect”.

For “29284-DC: siNA duplex, ICAM-1 target site 1141 (h); sense B cucAGucAGuGuGAccGcA TTB; antisense UGCGGucAcAcuGAcuGAGUU (sense CUCAGUCAGUGUGACCGCATT; antisense UGCGGUCACACUGACUGAGUU; sense: DNA at AGT, 2'-fluoro at CU, [invAb] at 5' end, 3' end, backbone not given here; antisense: sugars from the 5' end rrrmmffmfmffmmffmmmmm, backbone not given here)”, in data set [1], the “% KD ICAM-2 1 nM” value is given as 6 ± 11%. Moreover, in the data set with OAS1 mRNA [2], the “Membrane & Endosomal TLR3 mediated Immunostimulation OAS1 mRNA increase Calu 1 Cells” value is on record as “No significant effect”. The “Endosomal TLR3 mediated Immunostimulation OAS1 mRNA increase NHBE cells n = 3donors” value in the data set with OAS1 mRNA [3] is listed as “No significant effect”.

For the substance “29285-DC: siNA duplex, ICAM-1 target site 537 (h); sense B GGAAcAAccGGAAGGuGuA TTB; antisense UACAccuuccGGuuGuuccUU (sense GGAACAACCGGAAGGUGUATT; antisense UACACCUUCCGGUUGUUCCUU; sense: DNA at AGT, 2'-fluoro at CU, [invAb] at 5' end, 3' end, backbone not given here; antisense: sugars from the 5' end rrrmffffffmmffmffffmm, backbone not given here)”, the “% KD ICAM-2 1 nM” value in data set [1] amounted to 11 ± 7%. The “Membrane & Endosomal TLR3 mediated Immunostimulation OAS1 mRNA increase Calu 1 Cells” value in the data set with OAS1 mRNA [2] is given as “No significant effect”. Besides, the “Endosomal TLR3 mediated Immunostimulation OAS1 mRNA increase NHBE cells n = 3donors” value in the data set with OAS1 mRNA [3] was “No significant effect”.

As to “29286-DC: siNA duplex, ICAM-1 target site 1838 (h); sense B cGGAAGAucAAGAAAuAcA TTB; antisense UGUAuuucuuGAucuuccGUU (sense CGGAAGAUCAAGAAAUACATT; antisense UGUAUUUCUUGAUCUUCCGUU; sense: DNA at AGT, 2'-fluoro at CU, [invAb] at 5' end, 3' end, backbone not given here; antisense: sugars from the 5' end rrrmffffffmmffffffmmm, backbone not given here)”, the “% KD ICAM-2 1 nM” value in data set [1] is listed as −3 ± 14%. Further, in the data set on OAS1 mRNA [2], the “Membrane & Endosomal TLR3 mediated Immunostimulation OAS1 mRNA increase Calu 1 Cells” value was “No significant effect”. For the same substance, in the data set on OAS1 mRNA [3], the “Endosomal TLR3 mediated Immunostimulation OAS1 mRNA increase NHBE cells n = 3donors” value is listed as “No significant effect”.

With “29288-DC: siNA duplex, ICAM-1 target site 2046 (h); sense B cAuuGuccucAGucAGAuA TTB; antisense UAUcuGAcuGAGGAcAAuGUU (sense CAUUGUCCUCAGUCAGAUATT; antisense UAUCUGACUGAGGACAAUGUU; sense: DNA at AGT, 2'-fluoro at CU, [invAb] at 5' end, 3' end, backbone not given here; antisense: sugars from the 5' end rrrffmmffmmmmrfmmfmmm, backbone not given here)”, the “% KD ICAM-2 1 nM” value in data set [1] is −9 ± 18%. Also, the “Membrane & Endosomal TLR3 mediated Immunostimulation OAS1 mRNA increase Calu 1 Cells” value with OAS1 mRNA [2] is reported as “No significant effect”. The “Endosomal TLR3 mediated Immunostimulation OAS1 mRNA increase NHBE cells n = 3donors” value in the data set with OAS1 mRNA [3] was “No significant effect”.

Consider “48722-DC: siNA duplex, ICAM-1 target site 2240 (h); sense B GAcAuAcAAcuGGGAAAuA TTB; antisense UAUuucccAGuuGuAuGucUU (sense GACAUACAACUGGGAAAUATT; antisense UAUUUCCCAGUUGUAUGUCUU; sense: DNA at AGT, 2'-fluoro at CU, [invAb] at 5' end, 3' end, backbone not given here; antisense: sugars from the 5' end rrrfffffmmffmfmfmffmm, backbone not given here)”, for which, in data set [1], the “% KD ICAM-2 1 nM” value was −15 ± 29%. For the same substance, in the data set on OAS1 mRNA [2], the “Membrane & Endosomal TLR3 mediated Immunostimulation OAS1 mRNA increase Calu 1 Cells” value is “No significant effect”. Besides, in the data set on OAS1 mRNA [3], the “Endosomal TLR3 mediated Immunostimulation OAS1 mRNA increase NHBE cells n = 3donors” value is reported as “No significant effect”.
